Entries after “also recorded” stand apart in the source; their conditions may differ. Bridge positions count the residues as written; N and C are the ends.
Legend:
[1] = system: female Sprague-Dawley rats; experiment: Natriuretic and diuretic bioassay: urinary Na+ excretion after i.v. bolus in anesthetized rats; type: in vivo, rat; settings: for natriuretic activity, comparison in words (FIG. 12): 15 to 1350 pmoles i.v. bolus, change of Na+ excretion per 20 min, at least four rats per dose
Description: Diuretic and natriuretic activities of the ANFs are determined by the method of Garcia et al., (1982) Experientia 38, 1071-1073 and of Thibault et al., (1983) Hypertension 5, (Suppl. I), 75-80, both cited above, in female Sprague-Dawley rats (180-200 g) anesthetized with pentobarbital (60 mg/kg i.p.) equipped with a bladder catheter and an intrajugular vein catheter. The animals receive an infusion of 5% dextrose (3 ml/hr) for 45 minutes before the assay and during the evaluation period. Urine is collected in pre-weighed vials for 20 minute intervals. Following a basal collection period the ANFs to be assayed are injected as a bolus of 1 ml in Krebs solution pH 7.4 via the intrajugular vein catheter, urine is collected for a 20 minute period, and sodium concentrations are determined by flame photometry. Results are expressed as μEq of Na^+ for the collection period of 20 minutes from which the sodium excretion of the control period has been subtracted (ΔμEq Na^+ /20 min), and specific activity is defined as ΔμEq Na^+ /20 min/mg of protein. Protein is measured by the Bradford assay, see Spector, T. (1978) Anal. Biochem. 86, 142-146, with bovine albumin as a standard except for substantially pure ANFs where the amount of peptide is estimated from the amino acid sequencer.
Generally, in the purification procedures described above, unless otherwise specified all procedures are carried out at 4° C. At the end of each chromatographic step the material is lyophilized and then stored at -20° C. until used. For small volume (<6 ml) lyophilization is carried out in polystyrene tubes (1.5×7 cm) in a Savant Speed Vac concentrator. Larger volumes in the first steps are lyophilized in glass flasks. For subsequent steps, samples are dissolved in 1 to 3 ml of 0.01M ammonium acetate, pH 5.0, and aliquots are taken for the biological assay (Garcia et al., (1982) Experientia 38, 1071-1073, cited above) which are done in duplicate.
Generally, in the purification procedures discussed above, unless otherwise specified all procedures were carried out at 4° C. At the end of each chromatographic step the material was lyophilized and then stored at -20° C. until used. For small volume (<6 ml) lyophilization was carried out in polystyrene tubes (1.5×7 cm) in a Savant Speed Vac concentrator. Larger volumes in the first steps were lyophilized in glass flasks. For subsequent steps, samples were dissolved in 1 to 3 ml of 0.01M ammonium acetate, pH 5.0. Aliquots were taken for the biological assay (Garcia et al. (1982) Experientia 38, 1071-1073) which were done in duplicate. Proteins were measured by the Bradford assay (Spector, T. (1978) Anal. Biochem. 86, 142-146) with bovine albumin as a standard except in the last step where the amount of peptides was estimated from the amino acid sequencer.
The natriuretic activities of native ANF(2-33), ANF(3-33) and synthetic ANF(8-33) acid or amide forms were determined by a biological assay (Garcia, R., Cantin, M., Thibault, G., Ong, H. and Genest, J. (1982) Experientia 38: 1071-1073; Thibault, G., Garcia, R., Cantin, M., and Genest, J. (1983) Hypertension 5 (Suppl. I): 75-83), both references cited above. Female Sprague-Dawley rats (180-200 g) were used as bioassay animals. They were anesthetized with pentobarbital (60 mg/kg i.p.) and a bladder catheter and an intrajugular vein catheter were installed. The animals received a 5% (W/V) dextrose infusion (2.1 ml/hr) 30 minutes before the assay and during the evaluation period. Urine was collected in preweighed vials for 20-minute intervals. After a basal collection period, the ANF peptides (native ANF(2-33) or (3-33) or synthetic (8-33) acid or amide forms; 15 to 1350 pmoles) were injected in a bolus injection in 1 ml of Krebs solution, pH 7.4. Each dose was injected in at least four rats. The sodium concentration was measured by a flame photometer. The results are expressed in terms of change of Na^+ excretion per 20 min±SEM.

[2] = system: rabbit renal arteries (helical vascular strips); experiment: Vasorelaxant activity in vitro on norepinephrine-contracted rabbit renal artery strips; type: cell-based; settings: 0.25 μg peptide added to the bath 5 min before the cumulative NE curve; p<0.01
Description: The vasorelaxant activities of the ANFs of this invention are determined in vitro by means of a procedure involving the use of mammalian vascular strips. Briefly, healthy rabbits are anesthetized with sodium pentobarbital (30 mg/kg i.v.), their renal arteries are rapidly excised, fat and connective tissure are trimmed off, and the arterial issue is helically cut. The helical strips thus obtained are mounted between a fixed base and a force displacement transducer, immersed in a bath of continuously oxygenated Krebs solution at 37° C. and pH 7.4, and a tension of 500-700 mg is applied to the strip of arterial tissue. L-Norepinephrine bitartrate (NE) is added to the bath to obtain concentrations of NE ranging from 3.9×10^-6 to […], the contractions elicited by NE are registered on a polygraph, and a cumulative dose-response curve is established. Once a standard curve is reproducible it is repeated five minutes after having added 0.25 μg of the respective ANF to the bath. […]
For each arterial strip a cumulative dose-response curve to NE (L-norepinephrine bitartrate, Sigma Chemicals) ranging from 3.9×10^-6 to 1.6×10^-2 mM was obtained. […] The contraction elicited for each dose of NE is expressed as a percent of the maximum response.
Results are expressed as mean ±SEM. […]

[3] = native peptide peaks after last step, CN μBondapak column, high molecular weight region, rat bioassay

| Substance | specific activity (natriuretic) [1, 3] | diuretic and natriuretic activity, general statements in words ([1]; rat bioassay) | natriuretic activity, comparison in words (FIG. 12) [1] | specific activity of the material recovered (natriuretic) ([1]; after CN μBondapak reverse phase HPLC, partial inactivation of the peptide) | specific activity (natriuretic) ([1]; material at the Mono S column step, fractions 40 to 44 minutes, low molecular weight region) | vasorelaxant activity: displacement of the norepinephrine dose-response curve (FIG. 13) [2] |
| --- | --- | --- | --- | --- | --- | --- |
| H-Leu-Ala-Gly-Pro-Arg-Ser-Leu-Arg-Arg-Ser-Ser-Cys-Phe-Gly-Gly-Arg-Ile-Asp-Arg-Ile-Gly-Ala-Gln-Ser-Gly-Leu-Gly-Cys-Asn-Ser-Phe-Arg-Tyr-OH (H-LAGPRSLRRSSCFGGRIDRIGAQSGLGCNSFRY-OH; disulfide 12-28; ends not checked) [ANF(1-33), native rat atrial natriuretic factor of 33 amino acid residues, disulfide bridge Cys12-Cys28] | 297,000 μEq of Na^+ excreted/20 min/mg | biologically active | – | – | – | – |
| H-Ala-Gly-Pro-Arg-Ser-Leu-Arg-Arg-Ser-Ser-Cys-Phe-Gly-Gly-Arg-Ile-Asp-Arg-Ile-Gly-Ala-Gln-Ser-Gly-Leu-Gly-Cys-Asn-Ser-Phe-Arg-Tyr-OH (H-AGPRSLRRSSCFGGRIDRIGAQSGLGCNSFRY-OH; disulfide 11-27; ends not checked) [ANF(2-33), native rat atrial natriuretic factor of 32 amino acid residues] | – | – | slightly higher than that of the above compounds; also recorded: slightly higher than that of the other forms | – | – | – |
| H-Arg-Arg-Ser-Ser-Cys-Phe-Gly-Gly-Arg-Ile-Asp-Arg-Ile-Gly-Ala-Gln-Ser-Gly-Leu-Gly-Cys-Asn-Ser-Phe-Arg-Tyr-OH (H-RRSSCFGGRIDRIGAQSGLGCNSFRY-OH; disulfide 5-21; ends not checked) [ANF(8-33), native rat atrial natriuretic factor of 26 amino acid residues] | 450,000 μEq of Na^+ excreted/20 min/mg | more active than ANF(3-33) or ANF(1-33) | – | – | – | – |
| H-Gly-Pro-Arg-Ser-Leu-Arg-Arg-Ser-Ser-Cys-Phe-Gly-Gly-Arg-Ile-Asp-Arg-Ile-Gly-Ala-Gln-Ser-Gly-Leu-Gly-Cys-Asn-Ser-Phe-Arg-Tyr-OH (H-GPRSLRRSSCFGGRIDRIGAQSGLGCNSFRY-OH; disulfide 10-26; ends not checked) [ANF(3-33), native rat atrial natriuretic factor of 31 amino acid residues] | – | biologically active | comparable natriuretic activities | 84,000 μEq Na^+ excreted/20 min/mg | 131,000 μEq of Na^+ excreted/20 min/mg | displacing the response to norepinephrine (NE) to the right |

Source: patent publication US4607023A, “Natriuretic” (L'Institut de Recherches Cliniques de Montreal, priority 1983, dated 1986)
